Paper doi:10.1101/2024.02.12.580006v1 (biorxiv, 2024)

T1: PttCesA8 (Populus tremula x Populus tremuloides, UniProt Q6J8X0)
T1 sequence (Q6J8X0 1-978): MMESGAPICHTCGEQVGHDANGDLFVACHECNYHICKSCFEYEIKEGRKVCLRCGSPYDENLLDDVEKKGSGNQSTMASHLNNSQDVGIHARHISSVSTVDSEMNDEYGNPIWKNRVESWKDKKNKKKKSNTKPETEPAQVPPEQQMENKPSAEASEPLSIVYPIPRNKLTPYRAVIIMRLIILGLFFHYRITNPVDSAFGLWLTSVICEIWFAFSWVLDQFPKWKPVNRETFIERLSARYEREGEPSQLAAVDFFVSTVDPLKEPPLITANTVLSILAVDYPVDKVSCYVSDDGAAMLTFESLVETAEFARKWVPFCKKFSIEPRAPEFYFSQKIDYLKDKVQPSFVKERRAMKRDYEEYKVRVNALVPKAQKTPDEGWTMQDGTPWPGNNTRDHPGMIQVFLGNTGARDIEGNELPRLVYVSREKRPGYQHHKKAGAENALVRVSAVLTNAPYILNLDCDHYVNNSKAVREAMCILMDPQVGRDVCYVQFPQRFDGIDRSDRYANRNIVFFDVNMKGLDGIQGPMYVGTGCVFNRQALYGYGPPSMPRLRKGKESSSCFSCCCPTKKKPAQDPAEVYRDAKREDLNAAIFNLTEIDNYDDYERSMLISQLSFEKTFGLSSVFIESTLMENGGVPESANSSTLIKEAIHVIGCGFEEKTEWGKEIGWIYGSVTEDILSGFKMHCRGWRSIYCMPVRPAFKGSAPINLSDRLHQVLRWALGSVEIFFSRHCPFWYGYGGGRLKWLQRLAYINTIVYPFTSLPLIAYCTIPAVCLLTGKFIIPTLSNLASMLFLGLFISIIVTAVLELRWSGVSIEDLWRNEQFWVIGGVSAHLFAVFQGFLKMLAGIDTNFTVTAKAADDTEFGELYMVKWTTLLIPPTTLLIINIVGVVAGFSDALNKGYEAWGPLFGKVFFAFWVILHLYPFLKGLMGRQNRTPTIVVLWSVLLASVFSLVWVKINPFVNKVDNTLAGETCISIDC

T2: SeHas (Streptococcus dysgalactiae, UniProt O50201)
T2 sequence (O50201 1-417): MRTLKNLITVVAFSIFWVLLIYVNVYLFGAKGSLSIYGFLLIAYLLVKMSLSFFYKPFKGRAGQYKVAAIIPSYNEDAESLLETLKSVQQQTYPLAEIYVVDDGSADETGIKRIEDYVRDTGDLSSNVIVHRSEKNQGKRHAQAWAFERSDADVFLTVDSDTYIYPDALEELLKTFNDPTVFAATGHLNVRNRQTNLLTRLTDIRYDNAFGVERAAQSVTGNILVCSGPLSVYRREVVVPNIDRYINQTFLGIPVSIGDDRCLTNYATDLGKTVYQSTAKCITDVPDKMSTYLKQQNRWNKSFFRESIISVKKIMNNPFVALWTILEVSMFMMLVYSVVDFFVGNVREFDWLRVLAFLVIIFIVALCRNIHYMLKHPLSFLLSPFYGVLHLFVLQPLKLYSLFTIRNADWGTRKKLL

B1: PttCesA8 (Populus tremula x Populus tremuloides) (protein)
chain: T1 sequence (Q6J8X0 1-978)

Tests used:
[1] = target: T1, PttCesA8; experiment: UDP-Glo luminescence, product inhibition, exponential fit; type: biochemical
[2] = target: T2, SeHas; experiment: as above; type: biochemical
[3] = substrate: O=c1ccn([C@@H]2O[C@H](CO[P@@](=O)(O)O[P@@](=O)(O)O[C@H]3O[C@H](CO)[C@@H](O)[C@H](O)[C@H]3O)[C@@H](O)[C@H]2O)c(=O)[nH]1; experiment: purified protein; conditions: 20 mM MnCl2, 37 °C, 30 min, proteoliposomes

Molecule	Ki [1]	Ki [2]	Km [3]	kcat [3]
O=c1ccn([C@@H]2O[C@H](COP(=O)(O)OP(=O)(O)O)[C@@H](O)[C@H]2O)c(=O)[nH]1 [UDP]	10.1 µM	24.4 µM	–	–
B1	–	–	295.8 µM	21.57 s⁻¹
